The text below walks through data of patent publication US20080070984A1, “Compositions and Methods of Treating Schizophrenia” (priority 2006, published 2008).

This data set in a line: Uptake of colonically absorbable forms of levodopa after intracolonic administration in rats. The class given is in vivo. The conditions noted are these: whole blood, other: intracolonic (directly into the colon via cannula), rat, intraperitoneal carbidopa. The method, then: Sustained release oral dosage forms, which release drug slowly over periods of about 6 to about 24 hours, generally release a significant proportion of the dose within the colon. Thus, drugs suitable for use in such dosage forms should be colonically absorbed.
Rats were obtained commercially and were pre-cannulated in the both the ascending colon and the jugular vein. Animals were conscious at the time of the experiment. […] Carbidopa was administered as a solution in water or citrate buffer either orally, intraperitoneally, or intracolonically at a dose equivalent to 25 mg of carbidopa per kg. […] Blood was then further quenched with methanol/perchloric acid to prevent hydrolysis of the levodopa prodrug. Blood samples were analyzed as described below.
Methanol/perchloric acid (300 μL) was added to blank 1.5 mL Eppendorf tubes. Rat blood (300 μL) was collected into EDTA tubes containing 75 μL of sodium metabisulfite at different times and vortexed to mix. A fixed volume of blood (100 μL) was immediately added into the Eppendorf tube and vortexed to mix. […] Methanol/perchloric acid (300 μL of 50/50) was then added into each tube followed by the addition of 20 μL of p-chlorophenylalanine. The samples were vortexed and centrifuged at 14,000 rpm for 10 min. The supernatant was analyzed by LC/MS/MS. […]

The term bioavailability denotes dose-corrected exposure relative to a reference, in per cent. Lower therefore signals poor availability.

Regarding `N[C@@H](Cc1ccc(O)c(O)c1)C(=O)O` [levodopa], the bioavailability came to 3%.
